The values below come from US8916702B2 (priority 2012, dated 2014).

The test system of this experiment is HCV pseudoparticles (genotype 1a HCV E1 and E2 envelope, H77C isolate). The experiment can be described thus: microbe, parasite or virus in culture. It counts as cell-based. Particulars: Hepatitis C virus.
Setting [1] is: Huh-7, 48 h, read-out: Activity (EC50 class), HCV pseudoparticles, Huh7 cells, luciferase 2 days after infection, average of duplicates.
The mark [2] stands for this setting: Huh-7, 48 h, HCV pseudoparticles (genotype 1a, H77C) in Huh7 cells, average of duplicate, luciferase 2 days after infection.
[3] abbreviates: Huh-7, read-out: Activity (EC50 class), HCV pseudoparticles (genotype 1a, H77C) in Huh7 cells, EC50 expressed as class A/B.
Setting [4] is: Huh-7, 48 h, read-out: Activity (EC50 class), HCV pseudoparticle infection of Huh7 cells, luciferase 2 days after infection, EC50 expressed as class A/B.

pEC50: −log10 of the molar value. Where two headings read alike, the source gives them in different places.

`CC(C)(CNC(=O)C(=O)Nc1nc2cc(F)ccc2s1)CNC(=O)c1ccc(Nc2nc(NC3(c4ccc(Cl)cc4)CC3)nc(OCC(F)(F)F)n2)cc1` [Compound 3810]: the pEC50 – broadly, the EC50 on a negative log10 scale, so that one unit is a factor of ten – under setting [1] was 8.00 to 11.00.
As for `COC(=O)[C@H](CNC(=O)C(=O)Nc1ccc(Cc2ccccc2)cc1)NC(=O)c1ccc(Nc2nc(NC3(c4ccc(Cl)cc4)CC3)nc(OCC(F)(F)F)n2)cc1` [Compound 3091], the pEC50 reads like this: under setting [2], 8.55; under setting [3], 8.00 to 11.00.
As for `CC(C)(CNC(=O)C(=O)Nc1ccc(S(C)(=O)=O)cc1)CNC(=O)c1ccc(Nc2nc(NC3(c4ccc(Cl)cc4)CC3)nc(OCC(F)(F)F)n2)cc1` [Compound 3254], under setting [3], the pEC50 was 8.00 to 11.00.
Take `COCC1(CNC(=O)C(=O)NCC[C@H](NC(=O)c2ccc(Nc3nc(NC4(c5ccc(Cl)cc5)CC4)nc(OCC(F)(F)F)n3)cc2)C(=O)OC)CC1` [Compound 1374]: the pEC50 under setting [4] is 8.00 to 11.00.
With `CCOCCOc1ccc(NC(=O)C(=O)NC[C@H](NC(=O)c2ccc(Nc3nc(NC4(c5ccc(Cl)cc5)CC4)nc(OCC(F)(F)F)n3)cc2)C(=O)O)cc1` [Compound 3277], the pEC50 under setting [3] was 8.00 to 11.00.
Regarding `O=C(NC[C@H](NC(=O)c1ccc(Nc2nc(NC3(c4ccc(Cl)cc4)CC3)nc(OCC(F)(F)F)n2)cc1)C(=O)O)C(=O)Nc1cccc(S(=O)(=O)c2ccccc2)c1` [Compound 3757], the pEC50 under setting [1] was 8.00 to 11.00.
As for `O=C(NCc1ccc(F)cc1)C(=O)NCC(O)CNC(=O)c1ccc(Nc2nc(NC3(c4ccc(Cl)cc4)CC3)nc(OCC(F)(F)F)n2)cc1` (centres unmarked) [Compound 3368], the negative logarithm of the EC50 (pEC50) under setting [3] was 8.00 to 11.00.
In the case of `Cc1nccn1-c1ccc(NC(=O)C(=O)NC[C@H](NC(=O)c2ccc(Nc3nc(NC4(c5ccc(Cl)cc5)CC4)nc(OCC(F)(F)F)n3)cc2)C(=O)O)cc1` [Compound 3286], under setting [3], the pEC50 is 8.00 to 11.00.
On the same count and under the same terms, the result for `Cc1cc(NC(=O)C(=O)NCCCCNC(=O)c2ccc(Nc3nc(NC4(c5ccc(Cl)cc5)CC4)nc(OCC(F)(F)F)n3)cc2)no1` [Compound 3394] reads 8.00 to 11.00; that for `O=C(NC/C(=N/C(=O)c1ccc(Nc2nc(NC3(c4ccc(Cl)cc4)CC3)nc(OCC(F)(F)F)n2)cc1)C(=O)O)C(=O)Nc1ccc(Cc2ccccc2)cc1` [Compound 3159], 8.00 to 11.00; that for `COC(=O)[C@H](CNC(=O)C(=O)Nc1ccc(S(C)(=O)=O)cc1)NC(=O)c1ccc(Nc2nc(NC3(c4ccc(Cl)cc4)CC3)nc(OCC(F)(F)F)n2)cc1` [Compound 3105], 8.00 to 11.00.
In the case of `CC(C)(CNC(=O)C(=O)Nc1nc2c(Cl)ccc(Cl)c2s1)CNC(=O)c1ccc(Nc2nc(NC3(c4ccc(Cl)cc4)CC3)nc(OCC(F)(F)F)n2)cc1` [Compound 3837], the pEC50 under setting [1] is 8.00 to 11.00.
With `CC(C)(CNC(=O)C(=O)Nc1ccccc1-n1cnnn1)CNC(=O)c1ccc(Nc2nc(NC3(c4ccc(Cl)cc4)CC3)nc(OCC(F)(F)F)n2)cc1` [Compound 3046], the pEC50 under setting [3] is 8.00 to 11.00.
For the compound `COC(=O)[C@H](CNC(=O)C(=O)Nc1ccc(NC(C)=O)nc1)NC(=O)c1ccc(Nc2nc(NC3(c4ccc(Cl)cc4)CC3)nc(OCC(F)(F)F)n2)cc1` [Compound 3706], the pEC50 under setting [1] was 8.00 to 11.00.
For the compound `COC(=O)[C@H](CCNC(=O)C(=O)Nc1cccc(F)c1)NC(=O)c1ccc(Nc2nc(NC3(c4ccc(Cl)cc4)CC3)nc(OCC(F)(F)F)n2)cc1` [Compound 1227], the pEC50 under setting [4] was 8.00 to 11.00.
Regarding `CC(C)(CNC(=O)C(=O)Nc1ccc(-n2cncn2)cc1)CNC(=O)c1ccc(Nc2nc(NC3(c4ccc(Cl)cc4)CC3)nc(OCC(F)(F)F)n2)cc1` [Compound 3053], the pEC50 under setting [3] was 8.00 to 11.00.
In the case of `CC(C)(CNC(=O)C(=O)Nc1ccc(C(C)(C)C)cc1)CNC(=O)c1ccc(Nc2nc(NC3(c4ccc(Cl)cc4)CC3)nc(OCC(F)(F)F)n2)cc1` [Compound 1576], the pEC50 under setting [4] is 8.00 to 11.00.
As to `CC(C)(CNC(=O)C(N)=O)CNC(=O)c1ccc(Nc2nc(NC3(c4ccc(Cl)cc4)CC3)nc(OCC(F)(F)F)n2)cc1Cl` [Compound 3477], the pEC50 is, setting by setting: under setting [2], 9.92; under setting [3], 8.00 to 11.00.
In the case of `O=C(NC[C@H](NC(=O)c1ccc(Nc2nc(NC3(c4ccc(Cl)cc4)CC3)nc(OCC(F)(F)F)n2)cc1)C(=O)O)C(=O)NC1CCCCC1O` (some centres unmarked) [Compound 1081], under setting [4], the pEC50 is 8.00 to 11.00.
With `O=C(NCCc1ccncc1)C(=O)NC[C@H](NC(=O)c1ccc(Nc2nc(NC3(c4ccc(Cl)cc4)CC3)nc(OCC(F)(F)F)n2)cc1)C(=O)O` [Compound 1400], the pEC50 was 8.42 (Huh-7, 48 h, HCV pseudoparticle infection of Huh7 cells, luciferase 2 days after infection, average of duplicates) and 8.00 to 11.00 under setting [4].
With `O=C(NCC[C@H](NC(=O)c1ccc(Nc2nc(NC3(c4ccc(Cl)cc4)CC3)nc(OCC(F)(F)F)n2)cc1)C(=O)O)C(=O)NCc1cccc(F)c1` [Compound 1178], the pEC50 under setting [4] was 8.00 to 11.00.
As to `CC(C)(CNC(=O)C(=O)N1CCOCC1)CNC(=O)c1ccc(Nc2nc(NC3(c4ccc(Cl)cc4)CC3)nc(OCC(F)(F)F)n2)cc1` [Compound 3381], the pEC50 under setting [3] was 8.00 to 11.00.
For the compound `CC1(C)CC(NC(=O)C(=O)NC[C@H](NC(=O)c2ccc(Nc3nc(NC4(c5ccc(Cl)cc5)CC4)nc(OCC(F)(F)F)n3)cc2)C(=O)O)CC(C)(C)C1` [Compound 1077], the pEC50 under setting [4] is 8.00 to 11.00.
Regarding `O=C(NC/C(=N/C(=O)c1ccc(Nc2nc(NC3(c4ccc(Cl)cc4)CC3)nc(OCC(F)(F)F)n2)cc1)C(=O)O)C(=O)Nc1ccc(-c2ccccc2)cc1` [Compound 3151], the pEC50 under setting [3] was 8.00 to 11.00.
For the compound `CN(C)CCOc1ccc(NC(=O)C(=O)NCC[C@H](NC(=O)c2ccc(Nc3nc(NC4(c5ccc(Cl)cc5)CC4)nc(OCC(F)(F)F)n3)cc2)C(=O)O)cn1` [Compound 3660], the pEC50 is, setting by setting: (Huh-7, 48 h, HCV pseudoparticles, Huh7 cells, luciferase 2 days after infection, average of duplicates) 8.78; under setting [1], 8.00 to 11.00.
Turning to `COC(=O)[C@H](CCNC(=O)C(=O)NCc1ccc(OC)cc1OC)NC(=O)c1ccc(Nc2nc(NC3(c4ccc(Cl)cc4)CC3)nc(OCC(F)(F)F)n2)cc1` [Compound 1147], under setting [4], the pEC50 was 8.00 to 11.00.
Take `Cn1cnc2ccc(NC(=O)C(=O)NCC(C)(C)CNC(=O)c3ccc(Nc4nc(NC5(c6ccc(Cl)cc6)CC5)nc(OCC(F)(F)F)n4)cc3)cc21` [Compound 3341]: the pEC50 under setting [3] was 8.00 to 11.00.
On the same count and under the same terms, the result for `COC(=O)[C@H](CNC(=O)C(=O)Nc1ccc(-n2cccn2)cc1)NC(=O)c1ccc(Nc2nc(NC3(c4ccc(Cl)cc4)CC3)nc(OCC(F)(F)F)n2)cc1` [Compound 3108] reads 8.00 to 11.00; that for `CC(C)(CNC(=O)C(=O)Nc1ccc2c(c1)COC2=O)CNC(=O)c1ccc(Nc2nc(NC3(c4ccc(Cl)cc4)CC3)nc(OCC(F)(F)F)n2)cc1` [Compound 3359], 8.00 to 11.00.
Same read-out and setting: next, `CC(CNC(=O)C(=O)N1CCc2ccccc2C1)CNC(=O)c1ccc(Nc2nc(NC3(c4ccc(Cl)cc4)CC3)nc(OCC(F)(F)F)n2)cc1` (centres unmarked) [Compound 3471]: 8.00 to 11.00.
On to `Cc1cccc(NC(=O)C(=O)NCC(C)(C)CNC(=O)c2ccc(Nc3nc(NC4(c5ccc(Cl)cc5)CC4)nc(OCC(F)(F)F)n3)cc2)c1` [Compound 1597], for which, under setting [4], the pEC50 was 8.00 to 11.00.
Consider `CC(CNC(=O)C(=O)Nc1cc(F)cc(F)c1)CNC(=O)c1ccc(Nc2nc(NC3(c4ccc(Cl)cc4)CC3)nc(OCC(F)(F)F)n2)cc1` (centres unmarked) [Compound 3469], for which the pEC50 under setting [2] was 10.46 and the pEC50 under setting [3] is 8.00 to 11.00.
`O=C(NCc1ccc(F)cc1)C(=O)N(CCO)CCCNC(=O)c1ccc(Nc2nc(NC3(c4ccc(Cl)cc4)CC3)nc(OCC(F)(F)F)n2)cc1` [Compound 3502]: the pEC50 under setting [3] was 8.00 to 11.00.
Consider `CC(C)(CNC(=O)C(=O)Nc1ccccc1-c1ccccc1)CNC(=O)c1ccc(Nc2nc(NC3(c4ccc(Cl)cc4)CC3)nc(OCC(F)(F)F)n2)cc1F` [Compound 3556], for which the pEC50 under setting [3] was 8.00 to 11.00.
In the case of `O=C(NCCNC(=O)c1ccc(Nc2nc(NC3(c4ccc(Cl)cc4)CC3)nc(OCC(F)(F)F)n2)cc1)C(=O)Nc1cccc(F)c1` [Compound 3369], under setting [3], the pEC50 is 8.00 to 11.00.
Still for that read-out and setting: next, `CC(CNC(=O)C(N)=O)CNC(=O)c1ccc(Nc2nc(NC3(c4ccc(Cl)cc4)CC3)nc(OCC(F)(F)F)n2)cc1` (centres unmarked) [Compound 3345]: 8.00 to 11.00; `Cc1cc(NC(=O)C(=O)N(C)CCCN(C)C(=O)c2ccc(Nc3nc(NC4(c5ccc(Cl)cc5)CC4)nc(OCC(F)(F)F)n3)cc2)no1` [Compound 3423]: 8.00 to 11.00.
Same read-out and setting: next, `CN(CCCN(C)C(=O)c1ccc(Nc2nc(NC3(c4ccc(Cl)cc4)CC3)nc(OCC(F)(F)F)n2)cc1)C(=O)C(=O)N1CCc2ccccc2C1` [Compound 3433]: 6.00 to 8.00; `COC(=O)[C@H](CCNC(=O)C(=O)Nc1ccc(-c2nncn2C)cc1)NC(=O)c1ccc(Nc2nc(NC3(c4ccc(Cl)cc4)CC3)nc(OCC(F)(F)F)n2)cc1` [Compound 3317]: 8.00 to 11.00.
Same read-out and setting: next, `Cc1cc(Cl)ccc1NC(=O)C(=O)NCC(C)(C)CNC(=O)c1ccc(Nc2nc(NC3(c4ccc(Cl)cc4)CC3)nc(OCC(F)(F)F)n2)cc1` [Compound 3057]: 8.00 to 11.00.
Regarding `CC(C)(C)OC(=O)NC1(CNC(=O)C(=O)NCC[C@H](NC(=O)c2ccc(Nc3nc(NC4(c5ccc(Cl)cc5)CC4)nc(OCC(F)(F)F)n3)cc2)C(=O)O)CC1` [Compound 1425], the pEC50 under setting [4] was 8.00 to 11.00.
For `COC(=O)[C@H](CCNC(=O)C(=O)NCCc1ccccn1)NC(=O)c1ccc(Nc2nc(NC3(c4ccc(Cl)cc4)CC3)nc(OCC(F)(F)F)n2)cc1` [Compound 1306], the pEC50 under setting [4] was 8.00 to 11.00.
Take `Cc1noc2ccc(NC(=O)C(=O)NCC(C)(C)CNC(=O)c3ccc(Nc4nc(NC5(c6ccc(Cl)cc6)CC5)nc(OCC(F)(F)F)n4)cc3)cc12` [Compound 3339]: the pEC50 under setting [3] was 8.00 to 11.00.
Still for that read-out and setting: the result for `O=C(NC[C@H](NC(=O)c1ccc(Nc2nc(NC3(c4ccc(Cl)cc4)CC3)nc(OCC(F)(F)F)n2)cc1)C(=O)O)C(=O)Nc1ccc(-c2ccncc2)cc1` [Compound 3266] reads 8.00 to 11.00.
Regarding `COC(=O)[C@H](CCNC(=O)C(=O)NC1CCC(C(C)(C)C)CC1)NC(=O)c1ccc(Nc2nc(NC3(c4ccc(Cl)cc4)CC3)nc(OCC(F)(F)F)n2)cc1` (some centres unmarked) [Compound 1108], the pEC50 under setting [4] was 8.00 to 11.00.
